Laboratory results: patent US11285172B2, “Method for treating inflammatory diseases” (MacKay Memorial Hospital, priority 2019, dated 2022)
Structures can show the parent of a compound that is named as a salt.

Tested on: FANCs internalization in HAECs
Test: Endocytic pathway inhibition: FANC internalization in HAECs after endocytosis inhibitor pre-treatment (flow cytometry, confocal)
Type: cell-based, human
Conditions: for effect on FANCs internalization: complete medium, inhibitor pre-treatment 45 min (filipin 30 min); for effect on FANCs internalization / decrement of FANCs internalization compared to FANCs control: then FANCs 80 min; for decrement of FANCs internalization compared to FANCs control: 45 min inhibitor pre-treatment
Procedure: In certain experiments, HAECs were treated by endocytosis inhibitors to inhibit endocytic pathways. Endocytosis inhibitors are chlorpromazine hydrochloride (10 μg/ml, C8138), filipin (10 μg/ml, F9765), amiloride (10 μmol/L A7410), and genistein (50 μmol/L G6649; all obtained from Sigma-Aldrich).
Cells were seeded onto 2% gelatin-coated glass coverslips and incubated for 24 hours and applied to FANCs treatments. Cells were fixed with 1% paraformaldehyde, washed with PBS, then blocked with 5% bovine serum albumin (BSA) for 30 minutes. Then the cell culture was incubated with primary antibodies against VE-cadherin at 37° C. for 2 hours, followed by application of FITC-conjugated secondary antibody (Chemicon, Temecula, Calif., USA) for 50 minutes under room temperature. After one hour for the pre-treatment by above-mentioned endocytosis inhibitor, HAECs were incubated with FANCs for 80 minutes followed by washed with PBS and fixed with 1% paraformaldehyde. Afterwards, cells were stained with bisbenzamide (18.7 μmol/L) for 15 minutes and then washed with PBS buffer. Then, the cells were mounted by using 60% glycerol (v/v) and examined by using a confocal microscope (Leica TCS SP5, Leica, Germany) with a 40× oil objective/1.25 aperture. The images were captured under room temperature.
After 45 minutes of inhibitors pre-treatment (except 30 minutes of filipin treatment), FANCs were added and the incubation continued for additional 80 minutes. Thereafter, cells were subject to flow cytometry (FIGS. 1A-1D). […] However, in low serum or no serum medium, internalization of FANCs was blocked by chlorpromazine hydrochloride (compared to FANCs control, 60% of decrement at 1% FBS medium and 51% of decrement at no serum medium; FIGS. 1B and 1C).

In the case of `N=C(N)NC(=O)c1nc(Cl)c(N)nc1N` [amiloride], the “effect on FANCs internalization” value (flow cytometry) is reported as “slighter effects”.
For `O=c1c(-c2ccc(O)cc2)coc2cc(O)cc(O)c12` [genistein], the “effect on FANCs internalization” value (flow cytometry) was “slighter effects”.
For `CN(C)CCCN1c2ccccc2Sc2ccc(Cl)cc21` [chlorpromazine hydrochloride], the “decrement of FANCs internalization compared to FANCs control” value (1% FBS medium, flow cytometry, HAECs) was 60%, the “effect on FANCs internalization” value (flow cytometry) was “slighter effects” and the “punctate fluorescence signals of FANCs (confocal microscopy)” value (confocal microscopy, HAECs, FANCs 80 min after inhibitor pre-treatment) was “down-regulated”. The “decrement of FANCs internalization compared to FANCs control” value (no serum medium, flow cytometry, HAECs) was 51% and the “FANC internalization, dose dependence” value (only in low serum and no serum supplement culture environments, flow cytometry) was “attenuated FANC internalization in a dose-dependent manner”.
`CCCCC[C@@H](O)[C@H]1C(=O)O[C@H](C)[C@@H](O)/C=C/C=C/C=C/C=C/C=C(\C)[C@@H](O)C[C@H](O)C[C@H](O)C[C@H](O)C[C@H](O)C[C@H](O)C[C@@H]1O` [filipin] was tested, and the “effect on FANCs internalization” value (flow cytometry) was “slighter effects”.
